Measured values: patent US9090600B2, “Fungicidal 4-substituted-3-{phenyl[(heterocyclylmethoxy)imino]methyl}-1,2,4-oxadizol-5(4H)-one derivatives” (BAYER INTELLECTUAL PROPERTY GMBH, priority 2011, dated 2015)
Marks after values point to notes of the source that are not given here.

Experiments:
Pyrenophora teres = experiment: In vivo test on Pyrenophora teres (barley net blotch); conditions: barley plants, spray, 500 ppm, grading 12 days after contamination
Protocol: The active ingredients tested are prepared by homogenization in a mixture of acetone/Tween/DMSO, then diluted with water to obtain the desired active material concentration.
Barley plants (Plaisant variety), sown on a 50/50 peat soil-pozzolana substrate in starter cups and grown at 22° C. (12 h)/20° C. (12 h), are treated at the 1-leaf stage (10 cm tall) by spraying with the active ingredient prepared as described above.
(§1) Plants, used as controls, are treated with an aqueous solution not containing the active material.
After 24 hours, the plants are contaminated by spraying them with an aqueous suspension of Pyrenophora teres spores (12.000 spores per ml). The spores are collected from a 12-day-old culture.
The contaminated barley plants are incubated for 24 hours at about 20° C. and at 100% relative humidity, and then for 12 days at 80% relative humidity.
Grading is carried out 12 days after the contamination, in comparison with the control plants.
Under these conditions, good (at least 70%) is observed at a dose of 500 ppm with the following compounds: […]

[1] = tested on: Mycosphaerella graminicola; experiment: In vivo test on Mycosphaerella graminicola (wheat leaf spot); conditions: wheat plants, spray, 500 ppm, grading 21 to 28 days after contamination
Protocol: The active ingredients tested are prepared by homogenization in a mixture of acetone/tween/DMSO, then diluted with water to obtain the desired active material concentration.
Wheat plants (Scipion variety), sown on a 50/50 peat soil-pozzolana substrate in starter cups and grown at 22° C. (12 h)/20° C. (12 h), are treated at the 1-leaf stage (10 cm tall) by spraying with the aqueous suspension described above. Plants, used as controls, are treated with an aqueous solution not containing the active material.
After 24 hours, the plants are contaminated by spraying them with an aqueous suspension of cryopreserved Mycosphaerella graminicola spores (500.000 spores per ml). The contaminated wheat plants are incubated for 72 hours at 18° C. and at 100% relative humidity, and then for 21 to 28 days at 90% relative humidity.
Grading (% of efficacy) is carried out 21 to 28 days after the contamination, in comparison with the control plants.
(§2) Under these conditions, good (at least 70%) or total protection is observed at a dose of 500 ppm with the following compounds: […]

Phytophthora infestans = type: in vivo; conditions: tomato plants, spray, 500 ppm, grading 5 days after contamination
[2] = pH 2.7
Uromyces appendiculatus = experiment: In vivo test on Uromyces appendiculatus (brown rust of bean); conditions: Saxa variety plants, spray, 500 ppm, grading 10 days after contamination
Protocol: (§3) The active ingredients tested are prepared by homogenization in a mixture of acetone/tween/DMSO, then diluted with water to obtain the desired active material.
[…] (Saxa variety) sown on 50/50 peat soil-pozzolana substrate in starter cups and grown at 24° C., are treated at the 2-leaf stage (9 cm tall) by spraying with the aqueous suspension described above.
as §1
(§4) After 24 hours, the plants are contaminated by spraying the leaves with an aqueous suspension of Uromyces appendiculatus spores (150.000 spores per ml). The spores are collected from a 10-day-old contaminated […] and are suspended in water containing 2.5 ml/l of tween 80 10%. The contaminated […] are incubated for 24 hours at 20° C. and at 100% relative humidity, and then for 10 days at 20° C. and at 70% relative humidity. Grading is carried out 10 days after the contamination, in comparison with the control plants.
as §2

Puccinia recondita = experiment: In vivo test on Puccinia recondita (brown rust); conditions: wheat plants, spray, 500 ppm, grading 10 days after contamination
Protocol: as §3
Wheat plants (Scipion variety) sown on 50/50 peat soil-pozzolana substrate in starter cups and grown at 22° C. (12 h)/20° C. (12 h), are treated at the 1-leaf stage (10 cm tall) by spraying with the aqueous suspension described above.
as §4, with “Plants, used as controls, are treated with an aqueous solution not containing the active material. After” for “After”, “Puccinia recondite” for “Uromyces appendiculatus”, “(100.000” for “(150.000”
as §2

Botrytis cinerea = experiment: In vivo test on Botrytis cinerea (grey mould); conditions: gherkin plants, spray, 500 ppm, grading 4/5 days after contamination
Protocol: The active ingredients tested are prepared by homogenization in a mixture of acetone/Tween/DMSO, then diluted with water to obtain the desired active material
Gherkin plants (Vert petit de Paris variety), sown on a 50/50 peat soil-pozzolana substrate in starter cups and grown at 18-20° C., are treated at the cotyledon Z11 stage by spraying with the active ingredient prepared as described above.
Plants, used as controls, are treated with an aqueous solution not containing the active material. After 24 hours, the plants are contaminated by spraying them with an aqueous suspension of cryopreserved Botrytis cinerea spores (50.000 spores per ml) on upper surface of the leaves. The spores are suspended in a nutrient solution composed of: • 10 g/L of PDB; • 50 g/L of D-fructose; • 2 g/L of NH4NO3; • 1 g/L of KH2PO4.
The contaminated cucumber plants are settled for 4/5 days in a climatic room at 17° C. (day/night) and at 80% relative humidity.
Grading is carried out 4/5 days after the contamination, in comparison with the control plants.
as §2

Plasmopara viticola = experiment: Plasmopara test (grapevines)/preventive; type: in vivo; conditions: preventive spray, 10 ppm of active ingredient, evaluated 6 days after inoculation
In short: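 Young grapevines sprayed preventively with compound formulated in acetone/dimethylacetamide with emulsifier, diluted in water, then inoculated with P. viticola spores after drying. Held 1 day at ~20 °C/100% RH, 4 days in greenhouse at ~21 °C/~90% RH, then misted for 1 day. Efficacy scored 6 days post-inoculation (0% = untreated control, 100% = no disease).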

[3] = Measurement of log P values by HPLC on reversed phase columns (EEC directive 79/831 Annex V.A8); conditions: pH 2.7

| Structure (SMILES) | Eff. % (Pyrenophora teres) | Eff. % [1] | Eff. % (Phytophthora infestans) | LogP [2] | Eff. % (Uromyces appendiculatus) | Eff. % (Puccinia recondita) | Eff. % (Botrytis cinerea) | Eff. % (Plasmopara viticola) | chromatographic logP [3] |
| --- | --- | --- | --- | --- | --- | --- | --- | --- | --- |
| Cc1cccc(C(=NOCc2cccc(NC(=O)OC3CCCCC3)n2)c2noc(=O)n2C)c1 [Example 250] | 79% | 96% | 80% | 4.82 [a] | – | – | – | – | – |
| CC(Oc1ccccc1Br)C(=O)Nc1nc(CO/N=C(/c2ccccc2)c2noc(=O)n2C)cs1 (centres unmarked) [Example 113] | – | – | 90% | 4.2 [a] | 79% | – | – | – | – |
| Cc1cccc(/C(=N/OCc2cccc(NC(=O)OCc3ccccc3)n2)c2noc(=O)n2C)c1 [Example 117] | 79% | 90% | – | 4.31 [a] | – | – | – | – | – |
| Cn1c(/C(=N\OCc2cccc(NC(=O)CCC3CC3)n2)c2ccccc2)noc1=O [Example 62] | – | – | 99% | 3.51 [a] | 71% | – | – | – | – |
| CCCCCCOC(=O)Nc1nc(CO/N=C(/c2ccccc2)c2noc(=O)n2C)cs1 [Example 53] | 70% | – | 73% | 4.51 [a] | – | – | – | – | – |
| CC(C)C=CCCCCC(=O)Nc1cccc(CON=C(c2ccccc2)c2noc(=O)n2C)n1 [Example 268] | 96% | – | 100% | 5.06 [a] | – | – | – | – | – |
| Cn1c(C(=NOCc2cccc(NC(=O)OCCc3ccccc3)n2)c2ccc(F)cc2)noc1=O [Example 258] | – | – | 89% | 4.24 [a] | 93% | 81% | – | – | – |
| Cn1c(C(=NOCc2cccc(NC(=O)Cc3cc(F)ccc3F)n2)c2ccccc2)noc1=O [Example 255] | 70% | 88% | 98% | 3.62 [a] | – | – | – | – | – |
| Cn1c(/C(=N\OCc2cccc(NC(=O)c3ccc(Cl)cc3Cl)n2)c2ccccc2)noc1=O [Example 332] | – | – | 85% | 4.14 [a] | – | – | 71% | – | – |
| Cn1c(/C(=N\OCc2cccc(NC(=O)OC(C)(C)C)n2)c2cccc(F)c2)noc1=O [Example 206] | – | – | 100% | 4.09 [a] | 91% | – | – | 81% | – |
| CC(Nc1cccc(CO/N=C(/c2ccccc2)c2noc(=O)n2C)n1)c1ccccc1 (centres unmarked) [Example 43, 4-methyl-3-{(Z)-phenyl[({6-[(1-phenylethyl)amino]pyridin-2-yl}methoxy)imino]methyl}-1,2,4-oxadiazol-5(4H)-one] | – | 91% | 100% | – | 75% | 94% | – | – | 2.86 |
| C#CCCOC(=O)Nc1cccc(CO/N=C(/c2cccc(OC)c2)c2noc(=O)n2C)n1 [Example 228] | – | – | 100% | 3.33 [a] | 70% | 81% | – | 93% | – |
| CC(Oc1ccc(Br)cc1)C(=O)Nc1nc(CO/N=C(/c2ccccc2)c2noc(=O)n2C)cs1 (centres unmarked) [Example 216] | – | – | 95% | 4.17 [a] | 71% | – | – | – | – |
| C=CCCC(=O)Nc1cccc(CON=C(c2ccccc2)c2noc(=O)n2C)n1 [Example 256] | 90% | – | 100% | 3.25 [a] | – | – | – | – | – |
| COc1cccc(C(=NOCc2cccc(N)n2)c2noc(=O)[nH]2)c1 (mixture of isomers) [Example 354] | – | – | – | 1.29 [a] | – | – | 71% | – | – |
| CCCC(C)(C)OC(=O)Nc1cccc(CO/N=C(/c2ccccc2)c2noc(=O)n2C)n1 [Example 233, 2-methylpentan-2-yl {6-[({[(Z)-(4-methyl-5-oxo-4,5-dihydro-1,2,4-oxadiazol-3-yl)(phenyl)methylene]amino}oxy)methyl]pyridin-2-yl}carbamate] | – | – | 99% | – | – | 98% | – | 78% | 4.77 |
| CCC(=O)Nc1cccc(CO/N=C(/c2ccccc2)c2noc(=O)n2C)n1 [Example 71] | 70% | 88% | 99% | 2.77 [a] | – | – | – | – | – |
| COc1ccc(/C(=N/OCc2cccc(NC(=O)OC(C)CC(C)C)n2)c2noc(=O)n2C)cc1 (centres unmarked) [Example 185] | – | – | 83% | 4.72 [a] | 75% | 78% | – | – | – |
| CCCCCOC(=O)Nc1cccc(CO/N=C(/c2cccc(F)c2)c2noc(=O)n2C)n1 [Example 406] | – | 79% | 94% | 4.53 [a] | 79% | 81% | – | 79% | – |
| Cn1c(/C(=N\OCc2csc(NC(=O)c3ccc(Br)cc3)n2)c2ccccc2)noc1=O [Example 373] | – | – | 97% | 4.01 [a] | – | – | 85% | – | – |
| C=CCCCCCC(=O)Nc1cccc(CO/N=C(/c2ccccc2)c2noc(=O)n2C)n1 [Example 99] | – | – | 99% | 4.3 [a] | 71% | – | – | – | – |
| Cn1c(/C(=N\OCc2cccc(NC(=O)CCC3CCCC3)n2)c2ccccc2)noc1=O [Example 84] | 70% | – | 100% | 4.36 [a] | – | – | – | – | – |
| CCOCCOC(=O)Nc1cccc(CO/N=C(/c2ccccc2)c2noc(=O)n2C)n1 [Example 400] | – | – | 100% | 3.17 [a] | 94% | – | – | – | – |
| CCCCC(=O)Nc1cccc(CO/N=C(/c2cccc(F)c2)c2noc(=O)n2C)n1 [Example 140] | – | – | 100% | 3.61 [a] | 73% | 86% | – | 85% | – |
| COCC(=O)Nc1cccc(CO/N=C(/c2ccccc2)c2noc(=O)n2C)n1 [Example 379] | 100% | – | 100% | 2.73 [a] | – | – | – | – | – |
| CCCCOC(=O)Nc1cccc(CO/N=C(/c2cccc(F)c2)c2noc(=O)n2C)n1 [Example 295] | – | – | 97% | 4.14 [a] | 70% | – | – | 89% | – |
| CC(Oc1ccc(Cl)cc1)C(=O)Nc1nc(CO/N=C(/c2ccccc2)c2noc(=O)n2C)cs1 (centres unmarked) [Example 276] | – | – | 98% | 4.07 [a] | 89% | – | – | – | – |
| CCn1c(C(=NOCc2cccc(NC(=O)CC(C)C)n2)c2ccccc2)noc1=O [Example 280] | – | – | 100% | 3.7 [a] | 83% | 98% | – | – | – |
